Some results are limits rather than exact numbers.

For experiment [1], the target named is Monoamine transporters; Norepinephrine & serotonin (Rattus norvegicus) (UniProt P31652+Q9WTR4). Briefly: Selectivity for SERT over NET. The format is protein assay.
In experiment [2] the target is Monoamine transporters; serotonin & dopamine (Rattus norvegicus) (UniProt P31652+P23977). Description: Selectivity for SERT over DAT. Format: protein assay.
Experiment [3] has as its target Sodium-dependent dopamine transporter (Rattus norvegicus, UniProt P23977). Briefly: Displacement of [3H]beta-CIT from DAT in rat caudate homogenate.
For experiment [4], the target named is Sodium-dependent serotonin transporter (Rattus norvegicus, UniProt P31652). Description: Displacement of [3H]cyanoimipramine from SERT in rat cerebral cortex homogenate. Format: tissue-based. (In general: Displacement assays read how much labelled ligand stays bound in the presence of the test substance.)
The target in experiment [5] is Norepinephrine transporter (Rattus norvegicus, UniProt Q9WTR4). Briefly: Displacement of [3H]nisoxetine from NET in rat cerebral cortex. The format is tissue-based.
Chain of Norepinephrine transporter (Q9WTR4 whole entry): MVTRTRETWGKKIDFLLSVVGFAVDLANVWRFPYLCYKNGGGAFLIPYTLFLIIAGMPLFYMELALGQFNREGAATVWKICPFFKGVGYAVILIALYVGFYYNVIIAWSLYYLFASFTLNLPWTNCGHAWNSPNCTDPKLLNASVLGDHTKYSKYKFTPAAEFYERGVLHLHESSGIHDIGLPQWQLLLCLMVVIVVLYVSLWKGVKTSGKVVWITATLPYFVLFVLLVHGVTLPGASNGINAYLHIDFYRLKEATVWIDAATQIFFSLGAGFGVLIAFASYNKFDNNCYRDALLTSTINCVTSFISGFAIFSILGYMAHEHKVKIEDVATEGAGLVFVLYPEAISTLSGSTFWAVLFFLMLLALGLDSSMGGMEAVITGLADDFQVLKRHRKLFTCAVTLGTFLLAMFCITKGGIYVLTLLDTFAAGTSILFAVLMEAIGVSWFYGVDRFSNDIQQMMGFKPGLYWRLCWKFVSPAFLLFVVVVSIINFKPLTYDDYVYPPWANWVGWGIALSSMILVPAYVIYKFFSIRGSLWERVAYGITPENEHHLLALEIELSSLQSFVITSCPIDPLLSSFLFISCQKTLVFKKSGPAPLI

Chain of Monoamine transporters; serotonin & dopamine (Rattus norvegicus) (P23977 whole entry, looked up): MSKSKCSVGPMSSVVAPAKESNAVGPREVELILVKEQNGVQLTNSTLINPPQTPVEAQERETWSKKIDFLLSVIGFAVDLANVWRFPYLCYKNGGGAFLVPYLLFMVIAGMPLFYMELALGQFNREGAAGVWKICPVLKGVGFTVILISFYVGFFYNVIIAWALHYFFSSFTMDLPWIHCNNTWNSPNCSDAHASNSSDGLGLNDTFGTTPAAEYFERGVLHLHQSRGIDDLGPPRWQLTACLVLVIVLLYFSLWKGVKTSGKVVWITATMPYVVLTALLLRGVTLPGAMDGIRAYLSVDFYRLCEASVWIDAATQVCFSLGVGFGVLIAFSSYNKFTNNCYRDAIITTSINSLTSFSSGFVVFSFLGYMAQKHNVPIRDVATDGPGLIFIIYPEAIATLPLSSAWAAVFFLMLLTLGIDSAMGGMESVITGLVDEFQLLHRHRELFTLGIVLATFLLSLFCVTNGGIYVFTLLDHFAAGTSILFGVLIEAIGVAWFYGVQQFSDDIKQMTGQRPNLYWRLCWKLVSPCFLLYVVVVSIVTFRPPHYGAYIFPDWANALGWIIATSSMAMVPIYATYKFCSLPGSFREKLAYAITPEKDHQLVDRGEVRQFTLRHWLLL
Chain of Monoamine transporters; serotonin & dopamine (Rattus norvegicus) (P31652 whole entry, looked up): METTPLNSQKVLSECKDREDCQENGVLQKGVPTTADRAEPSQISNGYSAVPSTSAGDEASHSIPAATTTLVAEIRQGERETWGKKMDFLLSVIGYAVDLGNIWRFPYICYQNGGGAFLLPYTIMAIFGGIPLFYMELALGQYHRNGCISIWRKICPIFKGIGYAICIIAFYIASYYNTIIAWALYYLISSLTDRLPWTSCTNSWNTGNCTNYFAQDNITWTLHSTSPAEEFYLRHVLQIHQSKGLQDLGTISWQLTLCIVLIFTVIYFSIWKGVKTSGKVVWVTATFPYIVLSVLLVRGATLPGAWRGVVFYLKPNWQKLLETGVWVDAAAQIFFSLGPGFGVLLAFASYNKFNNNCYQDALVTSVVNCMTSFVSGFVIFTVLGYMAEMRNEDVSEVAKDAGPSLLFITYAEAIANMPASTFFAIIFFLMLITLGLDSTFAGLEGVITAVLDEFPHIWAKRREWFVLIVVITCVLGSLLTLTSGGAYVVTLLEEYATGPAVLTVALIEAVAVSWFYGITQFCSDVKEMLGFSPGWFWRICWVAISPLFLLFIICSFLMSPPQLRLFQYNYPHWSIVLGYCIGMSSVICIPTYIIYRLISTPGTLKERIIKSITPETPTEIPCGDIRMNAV
Chain of Sodium-dependent dopamine transporter (P23977 whole entry): as the sequence (P23977 whole entry, looked up) above
Chain of Sodium-dependent serotonin transporter (P31652 whole entry): as the sequence (P31652 whole entry, looked up) above

`COC(=O)[C@@H]1CN(C)CC[C@@H]1c1ccc(-c2nccs2)cc1` (racemic) [listing 1 of 2 here]: the figures for the Ratio Ki in experiment [1] and in experiment [2] were 4 and 2, respectively.

Consider `COC(=O)[C@@H]1CN(C)CC[C@@H]1c1ccc(-c2cccs2)cc1`, for which the values for the Ki in experiment [3], in experiment [4] and in experiment [5] were not below 5000 nM, 90.8 nM and more than 50000 nM, respectively. The Ratio Ki is more than 551 in experiment [1] and more than 55 in experiment [2].

With `COC(=O)[C@H]1[C@@H](c2ccc(I)cc2)C[C@@H]2CC[C@H]1N2C`, the Ki in experiment [3] came to 0.96 nM; in experiment [5] it was 2.8 nM. Moreover, the Ratio Ki in experiment [1] was found to be 6.1; in experiment [2], 2.1.

For `COC(=O)[C@@H]1CN(C)CC[C@@H]1c1ccc(-c2nccs2)cc1` (racemic) [listing 2 of 2 here], the Ki in experiment [3] was more than 10000 nM; in experiment [4], more than 5000 nM; in experiment [5], more than 20000 nM.

With `COC(=O)[C@@H]1CN(C)CC[C@@H]1c1ccc(/C=C\I)cc1`, the Ki in experiment [3] was 123 nM; in experiment [4], 7.9 nM; in experiment [5] it was more than 30000 nM. Also, the Ratio Ki was more than 3800 in experiment [1] and 15.6 in experiment [2].

Take `COC(=O)[C@@H]1CN(C)CC[C@@H]1c1ccc(I)cc1`: the Ki is 195 nM in experiment [3] and 167 nM in experiment [4]. The Ratio Ki is 59.9 in experiment [1] and 11.2 in experiment [2].

For the compound `COC(=O)[C@@H]1CN(C)CC[C@@H]1c1ccc(-c2nccs2)cc1` [listing 1 of 2 here], the figures for the Ki in experiment [4] and in experiment [5] were more than 10000 nM and more than 50000 nM, respectively.

With `COC(=O)[C@@H]1CN(C)CC[C@@H]1c1ccc(-c2ccco2)cc1`, the figures for the Ki in experiment [3], in experiment [4] and in experiment [5] were 205 nM, 18.5 nM and more than 50000 nM, respectively. Besides, the Ratio Ki in experiment [1] was more than 2700; in experiment [2], 11.1.

For `COC(=O)[C@@H]1CN(C)CC[C@@H]1c1ccc(C=O)cc1`, the Ki is more than 10000 nM in experiment [3], 1730 nM in experiment [4] and more than 30000 nM in experiment [5]. Besides, the Ratio Ki in experiment [1] was 17.3; in experiment [2], 5.8.

For `COC(=O)[C@@H]1CN(C)CC[C@@H]1c1ccc(-c2ccsc2)cc1`, the Ki in experiment [3] is 598 nM; in experiment [4], 31.8 nM; in experiment [5] it was more than 10000 nM. Also, the Ratio Ki in experiment [1] was more than 3140; in experiment [2] it was 188.

`COC(=O)[C@@H]1CN(C)CC[C@@H]1c1ccc(-c2nccs2)cc1` [listing 2 of 2 here]: the Ratio Ki came out at 5 in experiment [1] and 1 in experiment [2].

One may read the Ki as the equilibrium dissociation constant of an inhibitor or competing ligand from its target. Higher therefore signals a looser hold on the target.
